Four molecules from PubChem BioAssay AID1963831 (Molecular Pharmacology Branch, DTP, NCI, 2024) can be followed below.
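Note: spheroids exposed to compounds for seven days; 100% = DMSO vehicle control viability.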

In the first experiment the test system is 889142-216-R-J1-PDC complex spheroid viability. Kind of experiment: Anticancer human tumor 889142-216-R-J1-PDC patient-derived bladder carcinoma cell line growth inhibition [POLQ]. The settings on record: second compound 0.316 µM; first compound 1 µM; stronger effect = lower value. The method in brief:
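Growth inhibition in 3D: complex spheroids (tumor PDC, HUVEC, MSC) treated with POLQ inhibitor combinations; where Cmax unknown, highest tested concentration 10 microM, except SN-38 at 1 microM.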
Take `C=CC(=O)N1CCN(c2nc(=O)n(-c3c(C)ccnc3C(C)C)c3nc(-c4c(O)cccc4F)c(F)cc23)C(C)C1` (configuration not stated) + Nc1ccc(C#CCN(C(=O)Cc2ncc(C(F)(F)F)cc2C(F)(F)F)c2ccc(F)cc2)nn1: the viability, T/C (commonly the result in the treated group divided by that in the control group, in per cent) was 96.5%.

Turning to `CC(C)n1c(=O)n(C)c2cnc3cc(F)c(-c4ccc(OCCCN5CCCCC5)nc4)cc3c21` + Nc1ccc(C#CCN(C(=O)Cc2ncc(C(F)(F)F)cc2C(F)(F)F)c2ccc(F)cc2)nn1, the viability, T/C is 80.7%.

`CCc1cc2c(N3CCc4c(cc(Cn5ccnc5)cc4-c4cn(C)nc4C(F)(F)F)C3=O)ccnc2c(OC)n1` + Nc1ccc(C#CCN(C(=O)Cc2ncc(C(F)(F)F)cc2C(F)(F)F)c2ccc(F)cc2)nn1: the viability, T/C was 124%.

With `COc1cc2cc(C(=O)CCC(=O)O)sc2cc1OC` + Nc1ccc(C#CCN(C(=O)Cc2ncc(C(F)(F)F)cc2C(F)(F)F)c2ccc(F)cc2)nn1, the viability, T/C was 117%.

The same experiment, now with this note: second compound 0.316 µM; first compound 3.16 µM; stronger effect = lower value.
For the molecule `C=CC(=O)N1CCN(c2nc(=O)n(-c3c(C)ccnc3C(C)C)c3nc(-c4c(O)cccc4F)c(F)cc23)C(C)C1` (configuration not stated) + Nc1ccc(C#CCN(C(=O)Cc2ncc(C(F)(F)F)cc2C(F)(F)F)c2ccc(F)cc2)nn1, the viability, T/C is 145%.

Take `CC(C)n1c(=O)n(C)c2cnc3cc(F)c(-c4ccc(OCCCN5CCCCC5)nc4)cc3c21` + Nc1ccc(C#CCN(C(=O)Cc2ncc(C(F)(F)F)cc2C(F)(F)F)c2ccc(F)cc2)nn1: the viability, T/C is 56.4%.

Turning to `CCc1cc2c(N3CCc4c(cc(Cn5ccnc5)cc4-c4cn(C)nc4C(F)(F)F)C3=O)ccnc2c(OC)n1` + Nc1ccc(C#CCN(C(=O)Cc2ncc(C(F)(F)F)cc2C(F)(F)F)c2ccc(F)cc2)nn1, the viability, T/C is 127%.

Take `COc1cc2cc(C(=O)CCC(=O)O)sc2cc1OC` + Nc1ccc(C#CCN(C(=O)Cc2ncc(C(F)(F)F)cc2C(F)(F)F)c2ccc(F)cc2)nn1: the viability, T/C is 78.2%.

Still in this experiment, the particulars now being: second compound 0.316 µM; first compound 10 µM; stronger effect = lower value.
Take `C=CC(=O)N1CCN(c2nc(=O)n(-c3c(C)ccnc3C(C)C)c3nc(-c4c(O)cccc4F)c(F)cc23)C(C)C1` (configuration not stated) + Nc1ccc(C#CCN(C(=O)Cc2ncc(C(F)(F)F)cc2C(F)(F)F)c2ccc(F)cc2)nn1: the viability, T/C was 111%.

Consider `CC(C)n1c(=O)n(C)c2cnc3cc(F)c(-c4ccc(OCCCN5CCCCC5)nc4)cc3c21` + Nc1ccc(C#CCN(C(=O)Cc2ncc(C(F)(F)F)cc2C(F)(F)F)c2ccc(F)cc2)nn1, for which the viability, T/C is 95.8%.

On to `CCc1cc2c(N3CCc4c(cc(Cn5ccnc5)cc4-c4cn(C)nc4C(F)(F)F)C3=O)ccnc2c(OC)n1` + Nc1ccc(C#CCN(C(=O)Cc2ncc(C(F)(F)F)cc2C(F)(F)F)c2ccc(F)cc2)nn1, for which the viability, T/C was 82.1%.

Consider `COc1cc2cc(C(=O)CCC(=O)O)sc2cc1OC` + Nc1ccc(C#CCN(C(=O)Cc2ncc(C(F)(F)F)cc2C(F)(F)F)c2ccc(F)cc2)nn1, for which the viability, T/C was 78.5%.

The experiment is the same for the next values; noted with them: second compound 1 µM; first compound 0.0316 µM; stronger effect = lower value.
On to `C=CC(=O)N1CCN(c2nc(=O)n(-c3c(C)ccnc3C(C)C)c3nc(-c4c(O)cccc4F)c(F)cc23)C(C)C1` (configuration not stated) + Nc1ccc(C#CCN(C(=O)Cc2ncc(C(F)(F)F)cc2C(F)(F)F)c2ccc(F)cc2)nn1, for which the viability, T/C was 113%.

As to `CC(C)n1c(=O)n(C)c2cnc3cc(F)c(-c4ccc(OCCCN5CCCCC5)nc4)cc3c21` + Nc1ccc(C#CCN(C(=O)Cc2ncc(C(F)(F)F)cc2C(F)(F)F)c2ccc(F)cc2)nn1, the viability, T/C was 91.4%.

With `CCc1cc2c(N3CCc4c(cc(Cn5ccnc5)cc4-c4cn(C)nc4C(F)(F)F)C3=O)ccnc2c(OC)n1` + Nc1ccc(C#CCN(C(=O)Cc2ncc(C(F)(F)F)cc2C(F)(F)F)c2ccc(F)cc2)nn1, the viability, T/C was 103%.

Turning to `COc1cc2cc(C(=O)CCC(=O)O)sc2cc1OC` + Nc1ccc(C#CCN(C(=O)Cc2ncc(C(F)(F)F)cc2C(F)(F)F)c2ccc(F)cc2)nn1, the viability, T/C was 82.5%.

Still in this experiment, the particulars now being: second compound 1 µM; first compound 0.1 µM; stronger effect = lower value.
For `C=CC(=O)N1CCN(c2nc(=O)n(-c3c(C)ccnc3C(C)C)c3nc(-c4c(O)cccc4F)c(F)cc23)C(C)C1` (configuration not stated) + Nc1ccc(C#CCN(C(=O)Cc2ncc(C(F)(F)F)cc2C(F)(F)F)c2ccc(F)cc2)nn1, the viability, T/C was 86%.

In the case of `CC(C)n1c(=O)n(C)c2cnc3cc(F)c(-c4ccc(OCCCN5CCCCC5)nc4)cc3c21` + Nc1ccc(C#CCN(C(=O)Cc2ncc(C(F)(F)F)cc2C(F)(F)F)c2ccc(F)cc2)nn1, the viability, T/C is 80.3%.

As to `CCc1cc2c(N3CCc4c(cc(Cn5ccnc5)cc4-c4cn(C)nc4C(F)(F)F)C3=O)ccnc2c(OC)n1` + Nc1ccc(C#CCN(C(=O)Cc2ncc(C(F)(F)F)cc2C(F)(F)F)c2ccc(F)cc2)nn1, the viability, T/C is 93.7%.

For `COc1cc2cc(C(=O)CCC(=O)O)sc2cc1OC` + Nc1ccc(C#CCN(C(=O)Cc2ncc(C(F)(F)F)cc2C(F)(F)F)c2ccc(F)cc2)nn1, the viability, T/C is 96.3%.

The experiment is the same for the next values; noted with them: second compound 1 µM; first compound 0.316 µM; stronger effect = lower value.
`C=CC(=O)N1CCN(c2nc(=O)n(-c3c(C)ccnc3C(C)C)c3nc(-c4c(O)cccc4F)c(F)cc23)C(C)C1` (configuration not stated) + Nc1ccc(C#CCN(C(=O)Cc2ncc(C(F)(F)F)cc2C(F)(F)F)c2ccc(F)cc2)nn1: the viability, T/C is 120%.

Turning to `CC(C)n1c(=O)n(C)c2cnc3cc(F)c(-c4ccc(OCCCN5CCCCC5)nc4)cc3c21` + Nc1ccc(C#CCN(C(=O)Cc2ncc(C(F)(F)F)cc2C(F)(F)F)c2ccc(F)cc2)nn1, the viability, T/C is 104%.

For `CCc1cc2c(N3CCc4c(cc(Cn5ccnc5)cc4-c4cn(C)nc4C(F)(F)F)C3=O)ccnc2c(OC)n1` + Nc1ccc(C#CCN(C(=O)Cc2ncc(C(F)(F)F)cc2C(F)(F)F)c2ccc(F)cc2)nn1, the viability, T/C is 125%.

For `COc1cc2cc(C(=O)CCC(=O)O)sc2cc1OC` + Nc1ccc(C#CCN(C(=O)Cc2ncc(C(F)(F)F)cc2C(F)(F)F)c2ccc(F)cc2)nn1, the viability, T/C was 93%.

The same experiment, now with this note: second compound 1 µM; first compound 1 µM; stronger effect = lower value.
In the case of `C=CC(=O)N1CCN(c2nc(=O)n(-c3c(C)ccnc3C(C)C)c3nc(-c4c(O)cccc4F)c(F)cc23)C(C)C1` (configuration not stated) + Nc1ccc(C#CCN(C(=O)Cc2ncc(C(F)(F)F)cc2C(F)(F)F)c2ccc(F)cc2)nn1, the viability, T/C was 121%.

For the molecule `CC(C)n1c(=O)n(C)c2cnc3cc(F)c(-c4ccc(OCCCN5CCCCC5)nc4)cc3c21` + Nc1ccc(C#CCN(C(=O)Cc2ncc(C(F)(F)F)cc2C(F)(F)F)c2ccc(F)cc2)nn1, the viability, T/C was 88.7%.

As for `CCc1cc2c(N3CCc4c(cc(Cn5ccnc5)cc4-c4cn(C)nc4C(F)(F)F)C3=O)ccnc2c(OC)n1` + Nc1ccc(C#CCN(C(=O)Cc2ncc(C(F)(F)F)cc2C(F)(F)F)c2ccc(F)cc2)nn1, the viability, T/C is 123%.

Take `COc1cc2cc(C(=O)CCC(=O)O)sc2cc1OC` + Nc1ccc(C#CCN(C(=O)Cc2ncc(C(F)(F)F)cc2C(F)(F)F)c2ccc(F)cc2)nn1: the viability, T/C was 89.5%.

Staying with this experiment, now noted: second compound 1 µM; first compound 3.16 µM; stronger effect = lower value.
On to `C=CC(=O)N1CCN(c2nc(=O)n(-c3c(C)ccnc3C(C)C)c3nc(-c4c(O)cccc4F)c(F)cc23)C(C)C1` (configuration not stated) + Nc1ccc(C#CCN(C(=O)Cc2ncc(C(F)(F)F)cc2C(F)(F)F)c2ccc(F)cc2)nn1, for which the viability, T/C is 116%.

With `CC(C)n1c(=O)n(C)c2cnc3cc(F)c(-c4ccc(OCCCN5CCCCC5)nc4)cc3c21` + Nc1ccc(C#CCN(C(=O)Cc2ncc(C(F)(F)F)cc2C(F)(F)F)c2ccc(F)cc2)nn1, the viability, T/C was 57.3%.

On to `CCc1cc2c(N3CCc4c(cc(Cn5ccnc5)cc4-c4cn(C)nc4C(F)(F)F)C3=O)ccnc2c(OC)n1` + Nc1ccc(C#CCN(C(=O)Cc2ncc(C(F)(F)F)cc2C(F)(F)F)c2ccc(F)cc2)nn1, for which the viability, T/C was 99%.

Consider `COc1cc2cc(C(=O)CCC(=O)O)sc2cc1OC` + Nc1ccc(C#CCN(C(=O)Cc2ncc(C(F)(F)F)cc2C(F)(F)F)c2ccc(F)cc2)nn1, for which the viability, T/C is 93.3%.

Staying with this experiment, now noted: second compound 1 µM; first compound 10 µM; stronger effect = lower value.
As for `C=CC(=O)N1CCN(c2nc(=O)n(-c3c(C)ccnc3C(C)C)c3nc(-c4c(O)cccc4F)c(F)cc23)C(C)C1` (configuration not stated) + Nc1ccc(C#CCN(C(=O)Cc2ncc(C(F)(F)F)cc2C(F)(F)F)c2ccc(F)cc2)nn1, the viability, T/C was 100%.

As for `CC(C)n1c(=O)n(C)c2cnc3cc(F)c(-c4ccc(OCCCN5CCCCC5)nc4)cc3c21` + Nc1ccc(C#CCN(C(=O)Cc2ncc(C(F)(F)F)cc2C(F)(F)F)c2ccc(F)cc2)nn1, the viability, T/C was 97.8%.

On to `CCc1cc2c(N3CCc4c(cc(Cn5ccnc5)cc4-c4cn(C)nc4C(F)(F)F)C3=O)ccnc2c(OC)n1` + Nc1ccc(C#CCN(C(=O)Cc2ncc(C(F)(F)F)cc2C(F)(F)F)c2ccc(F)cc2)nn1, for which the viability, T/C is 105%.

For `COc1cc2cc(C(=O)CCC(=O)O)sc2cc1OC` + Nc1ccc(C#CCN(C(=O)Cc2ncc(C(F)(F)F)cc2C(F)(F)F)c2ccc(F)cc2)nn1, the viability, T/C is 68.2%.

The experiment is the same for the next values; noted with them: second compound 3.16 µM; first compound 0.0316 µM; stronger effect = lower value.
Turning to `C=CC(=O)N1CCN(c2nc(=O)n(-c3c(C)ccnc3C(C)C)c3nc(-c4c(O)cccc4F)c(F)cc23)C(C)C1` (configuration not stated) + Nc1ccc(C#CCN(C(=O)Cc2ncc(C(F)(F)F)cc2C(F)(F)F)c2ccc(F)cc2)nn1, the viability, T/C was 126%.

On to `CC(C)n1c(=O)n(C)c2cnc3cc(F)c(-c4ccc(OCCCN5CCCCC5)nc4)cc3c21` + Nc1ccc(C#CCN(C(=O)Cc2ncc(C(F)(F)F)cc2C(F)(F)F)c2ccc(F)cc2)nn1, for which the viability, T/C was 85.6%.

In the case of `CCc1cc2c(N3CCc4c(cc(Cn5ccnc5)cc4-c4cn(C)nc4C(F)(F)F)C3=O)ccnc2c(OC)n1` + Nc1ccc(C#CCN(C(=O)Cc2ncc(C(F)(F)F)cc2C(F)(F)F)c2ccc(F)cc2)nn1, the viability, T/C was 105%.

As for `COc1cc2cc(C(=O)CCC(=O)O)sc2cc1OC` + Nc1ccc(C#CCN(C(=O)Cc2ncc(C(F)(F)F)cc2C(F)(F)F)c2ccc(F)cc2)nn1, the viability, T/C is 108%.

The same experiment, now with this note: second compound 3.16 µM; first compound 0.1 µM; stronger effect = lower value.
As to `C=CC(=O)N1CCN(c2nc(=O)n(-c3c(C)ccnc3C(C)C)c3nc(-c4c(O)cccc4F)c(F)cc23)C(C)C1` (configuration not stated) + Nc1ccc(C#CCN(C(=O)Cc2ncc(C(F)(F)F)cc2C(F)(F)F)c2ccc(F)cc2)nn1, the viability, T/C was 88.3%.

`CC(C)n1c(=O)n(C)c2cnc3cc(F)c(-c4ccc(OCCCN5CCCCC5)nc4)cc3c21` + Nc1ccc(C#CCN(C(=O)Cc2ncc(C(F)(F)F)cc2C(F)(F)F)c2ccc(F)cc2)nn1: the viability, T/C was 72.8%.
